Source: patent US20240101546A1, “HETEROARYL-ACETYLENES, PHARMACEUTICAL COMPOSITIONS THEREOF, AND THEIR THERAPEUTIC APPLICATIONS” (Eubulus Biotherapeutics Inc., priority 2020, published 2024)

These compounds were tested on lung cancer cell line NCI-H82 (assay: Cell proliferation assay, NCI-H82 (CELL-TITER GLO)). Settings: Homo sapiens, NCI-H82, 72 h, NCI-H82 cells, 72 h incubation, cell viability by CELL-TITER GLO, top concentration 1 μM; read-out: EC50, Inhibition of NCl-H82 Cell Proliferation.
Type: cell-based
Description: The activity of a compound was determined in a cell proliferation assay using the lung cancer cell line NCI-H82. Cells (1,000 cells per well) were cultured with RPMI1640 in a 384-well tissue culture plate. After incubated overnight, the compound was added at predetermined concentrations, starting with 1 μM and followed by a 3-fold serial dilution. After the cells were incubated for 72 h, cell viability was determined using a CELL-TITER GLO assay. The CELL-TITER GLO reagent (25 μL) was added to each well and the luminescence was measured by a multimode microplate reader after a brief period of shaking. EC50 values were determined for the compound. The results are summarized in Table 1, wherein A represents a value no greater than 200 nM, B represents a value greater than 200 nM but no greater than 1 μM, C represents a value greater than 1 μM but no greater than […], and D represents a value greater than 5 μM.
`C#Cc1nc(NC(=O)N[C@@H](C)c2ccc(-c3cccc4ncsc34)cc2)cs1` [Compound A25, (S)-1-(1-(4-(Benzo[d]thiazol-7-yl)phenyl)ethyl)-3-(2-ethynylthiazol-4-yl)urea] was tested, and the EC50 was ≤ 200 nM. In the case of `C#Cc1nc(NC(=O)N[C@H](C)c2ccc(-c3cccc4ncsc34)cc2)cs1` [Compound A26, (R)-1-(1-(4-(Benzo[d]thiazol-7-yl)phenyl)ethyl)-3-(2-ethynylthiazol-4-yl)urea], the EC50 is reported as 200 to 1000 nM. For `C#Cc1nc(NC(=O)NCc2ccc(-c3ccccc3C#N)cc2)cs1` [Compound A29, 1-((2′-Cyano-[1,1′-biphenyl]-4-yl)methyl)-3-(2-ethynylthiazol-4-yl)urea], the EC50 was ≤ 200 nM. For `C#Cc1nc(NC(=O)NCc2ccc(N3CCCC3)cc2)cs1` [Compound A30, 1-(2-Ethynylthiazol-4-yl)-3-(4-(pyrrolidin-1-yl)benzyl)urea], the EC50 was ≤ 200 nM. Compound `C#Cc1nc(NC(=O)NCc2ccc(N3CCCC3C(N)=O)cc2)cs1` (stereo not drawn) [Compound A31, 1-(4-((3-(2-Ethynylthiazol-4-yl)ureido)methyl)phenyl)pyrrolidine-2-carboxamide] has an EC50 of 200 to 1000 nM. For `C#Cc1nc(NC(=O)NCc2ccc(N3CCC[C@H]3C#N)cc2)cs1` [Compound A32, (S)-1-(4-(2-Cyanopyrrolidin-1-yl)benzyl)-3-(2-ethynylthiazol-4-yl)urea], the EC50 was ≤ 200 nM. In the case of `C#Cc1nc(NC(=O)NCc2ccc(N3CCC[C@@H]3C#N)cc2)cs1` [Compound A33, (R)-1-(4-(2-Cyanopyrrolidin-1-yl)benzyl)-3-(2-ethynylthiazol-4-yl)urea], the EC50 is reported as ≤ 200 nM. With `C#Cc1nc(NC(=O)NCC(=O)N2CC(c3ccccc3C#N)C2)cs1` [Compound A34, 1-(2-(3-(2-Cyanophenyl)azetidin-1-yl)-2-oxoethyl)-3-(2-ethynylthiazol-4-yl)urea] the EC50 was 200 to 1000 nM. With `C#Cc1nc(NC(=O)NCC(=O)N2CCC(c3ccccc3C#N)CC2)cs1` [Compound A35, 1-(2-(4-(2-Cyanophenyl)piperidin-1-yl)-2-oxoethyl)-3-(2-ethynylthiazol-4-yl)urea] the EC50 was 200 to 1000 nM. `C#Cc1nc(NC(=O)NCC(=O)N2CCN(c3ccccc3C#N)CC2)cs1` [Compound A36, 1-(2-(4-(2-Cyanophenyl)piperazin-1-yl)-2-oxoethyl)-3-(2-ethynylthiazol-4-yl)urea] was tested, and the EC50 was ≤ 200 nM. In the case of `C#Cc1nc(NC(=O)NCC2CCN(c3ccccc3C#N)CC2)cs1` [Compound A37, 1-((1-(2-Cyanophenyl)piperidin-4-yl)methyl)-3-(2-ethynylthiazol-4-yl)urea], the EC50 is reported as ≤ 200 nM. In the case of `C#Cc1nc(NC(=O)NCC23CC4CC(CC(C4)C2)C3)cs1` [Compound A38, 1-(Adamantan-1-ylmethyl)-3-(2-ethynylthiazol-4-yl)urea], the EC50 is reported as ≤ 200 nM. `C#Cc1nc(NC(=O)N[C@@H](CO)c2ccc(-c3cccc4ncsc34)cc2)cs1` [Compound A40, (R)-1-(1-(4-(Benzo[d]thiazol-7-yl)phenyl)-2-hydroxyethyl)-3-(2-ethynylthiazol-4-yl)urea] was tested, and the EC50 was ≤ 200 nM. In the case of `C#Cc1nc(NC(=O)N[C@H](CO)c2ccc(-c3cccc4ncsc34)cc2)cs1` [Compound A41, (S)-1-(1-(4-(Benzo[d]thiazol-7-yl)phenyl)-2-hydroxyethyl)-3-(2-ethynylthiazol-4-yl)urea], the EC50 is reported as ≤ 200 nM. With `C#Cc1nc(NC(=O)N[C@@H](CO)c2ccc(-c3cccc(N4CCCC4)c3)cc2)cs1` [Compound A42, (R)-1-(2-Ethynylthiazol-4-yl)-3-(2-hydroxy-1-(3′-(pyrrolidin-1-yl)-[1,1′-biphenyl]-4-yl)ethyl)urea] the EC50 was ≤ 200 nM. For `C#Cc1nc(NC(=O)N[C@@H](C(=O)NC)c2ccc(-c3cccnc3C3(C#N)CC3)cc2)cs1` [Compound A43, (R)-2-(4-(2-(1-Cyanocyclopropyl)pyridin-3-yl)phenyl)-2-(3-(2-ethynylthiazol-4-yl)ureido)-N-methylacetamide], the EC50 was ≤ 200 nM. In the case of `C#Cc1nc(NC(=O)N[C@@H](CO)c2ccc(-c3ccccc3C#N)cc2)cs1` [Compound A44, (R)-1-(1-(2′-Cyano-[1,1′-biphenyl]-4-yl)-2-hydroxyethyl)-3-(2-ethynylthiazol-4-yl)urea], the EC50 is reported as ≤ 200 nM. `C#Cc1nc(NC(=O)N[C@@H](CO)c2ccc(-c3ccccc3C#N)cn2)cs1` [Compound A45, (R)-1-(1-(5-(2-Cyanophenyl)pyridin-2-yl)-2-hydroxyethyl)-3-(2-ethynylthiazol-4-yl)urea] was tested, and the EC50 was ≤ 200 nM. `C#Cc1nc(NC(=O)N[C@@H](COC(N)=O)c2ccc(-c3ccccc3C#N)cc2)cs1` [Compound A46, (R)-2-(2′-Cyano-[1,1′-biphenyl]-4-yl)-2-(3-(2-ethynylthiazol-4-yl)ureido)ethyl carbamate] was tested, and the EC50 was ≤ 200 nM. With `C#Cc1nc(NC(=O)N[C@@H](COC(N)=O)c2ccc(-c3ncccc3C#N)cc2)cs1` [Compound A47, (R)-2-(4-(3-Cyanopyridin-2-yl)phenyl)-2-(3-(2-ethynylthiazol-4-yl)ureido)ethyl carbamate] the EC50 was ≤ 200 nM. With `C#Cc1nc(NC(=O)N[C@@H](COC(N)=O)c2ccc(-c3cc(C#N)ccn3)cc2)cs1` [Compound A48, (R)-2-(4-(4-Cyanopyridin-2-yl)phenyl)-2-(3-(2-ethynylthiazol-4-yl)ureido)ethyl carbamate] the EC50 was ≤ 200 nM. `C#Cc1nc(NC(=O)N[C@@H](COC(N)=O)c2ccc(-c3cccc4ccncc34)cc2)cs1` [Compound A49, (R)-2-(3-(2-Ethynylthiazol-4-yl)ureido)-2-(4-(isoquinolin-8-yl)phenyl)ethyl carbamate] was tested, and the EC50 was ≤ 200 nM. For `C#Cc1nc(NC(=O)N[C@@H](COC(N)=O)c2ccc(-c3cccc4cncnc34)cc2)cs1` [Compound A50, (R)-2-(3-(2-Ethynylthiazol-4-yl)ureido)-2-(4-(quinazolin-8-yl)phenyl)ethyl carbamate], the EC50 was ≤ 200 nM. For `C#Cc1nc(NC(=O)N[C@@H](COC(N)=O)c2ccc(-c3cccc4nccnc34)cc2)cs1` [Compound A51, (R)-2-(3-(2-Ethynylthiazol-4-yl)ureido)-2-(4-(quinoxalin-5-yl)phenyl)ethyl carbamate], the EC50 was ≤ 200 nM. For `C#Cc1nc(NC(=O)N[C@@H](CO)c2ccc(-c3c(C#N)ccc4cccnc34)cc2)cs1` [Compound A52, (R)-1-(1-(4-(7-Cyanoquinolin-8-yl)phenyl)-2-hydroxyethyl)-3-(2-ethynylthiazol-4-yl)urea], the EC50 was ≤ 200 nM. In the case of `C#Cc1nc(NC(=O)N[C@@H](CO)c2ccc(-c3cccc4c3c(C#N)nn4C)cc2)cs1` [Compound A53, (R)-1-(1-(4-(3-Cyano-1-methyl-1H-indazol-4-yl)phenyl)-2-hydroxyethyl)-3-(2-ethynylthiazol-4-yl)urea], the EC50 is reported as ≤ 200 nM. `C#Cc1nc(NC(=O)N[C@@H](CO)c2ccc(-c3ccccc3C3(C#N)CC3)cc2)cs1` [Compound A54, (R)-1-(1-(2′-(1-Cyanocyclopropyl)-[1,1′-biphenyl]-4-yl)-2-hydroxyethyl)-3-(2-ethynylthiazol-4-yl)urea] was tested, and the EC50 was ≤ 200 nM. With `C#Cc1nc(NC(=O)N[C@@H](COC(N)=O)c2ccc(-c3ccccc3C3(C#N)CC3)cc2)cs1` [Compound A55, (R)-2-(2′-(1-Cyanocyclopropyl)-[1,1′-biphenyl]-4-yl)-2-(3-(2-ethynylthiazol-4-yl)ureido)ethyl carbamate] the EC50 was ≤ 200 nM. In the case of `C#Cc1nc(NC(=O)N[C@@H](COC(N)=O)c2ccc(-c3cccc(C4(C#N)CC4)n3)cc2)cs1` [Compound A56, (R)-2-(4-(6-(1-Cyanocyclopropyl)pyridin-2-yl)phenyl)-2-(3-(2-ethynylthiazol-4-yl)ureido)ethyl carbamate], the EC50 is reported as ≤ 200 nM. For `C#Cc1nc(NC(=O)N[C@@H](COC(N)=O)c2ccc(-c3cc(C4(C#N)CC4)ccn3)cc2)cs1` [Compound A57, (R)-2-(4-(4-(1-Cyanocyclopropyl)pyridin-2-yl)phenyl)-2-(3-(2-ethynylthiazol-4-yl)ureido)ethyl carbamate], the EC50 was ≤ 200 nM. `C#Cc1nc(NC(=O)N[C@@H](COC(N)=O)c2ccc(-c3ncccc3C3(C#N)CC3)cc2)cs1` [Compound A58, (R)-2-(4-(3-(1-Cyanocyclopropyl)pyridin-2-yl)phenyl)-2-(3-(2-ethynylthiazol-4-yl)ureido)ethyl carbamate] was tested, and the EC50 was ≤ 200 nM. `C#Cc1nc(NC(=O)N[C@@H](CO)c2ccc(-c3ccccc3C3(C#N)CC3)nc2)cs1` [Compound A59, (R)-1-(1-(6-(2-(1-Cyanocyclopropyl)phenyl)pyridin-3-yl)-2-hydroxyethyl)-3-(2-ethynylthiazol-4-yl)urea] was tested, and the EC50 was ≤ 200 nM. For `C#Cc1nc(NC(=O)N[C@@H](COC(N)=O)c2ccc(-c3ccccc3C3(C#N)CC3)cn2)cs1` [Compound A60, (R)-2-(5-(2-(1-Cyanocyclopropyl)phenyl)pyridin-2-yl)-2-(3-(2-ethynylthiazol-4-yl)ureido)ethyl carbamate], the EC50 was ≤ 200 nM. `C#Cc1nc(NC(=O)N[C@H](COC(N)=O)c2ccc(-c3ccccc3C3(C#N)CC3)cn2)cs1` [Compound A61, (S)-2-(5-(2-(1-Cyanocyclopropyl)phenyl)pyridin-2-yl)-2-(3-(2-ethynylthiazol-4-yl)ureido)ethyl carbamate] was tested, and the EC50 was ≤ 200 nM. For `C#Cc1nc(NC(=O)N[C@@H](CO)c2ccc(-c3cccnc3C3(C#N)CC3)cc2)cs1` [Compound A62, (R)-1-(1-(4-(2-(1-Cyanocyclopropyl)pyridin-3-yl)phenyl)-2-hydroxyethyl)-3-(2-ethynylthiazol-4-yl)urea], the EC50 was ≤ 200 nM. With `C#Cc1nc(NC(=O)N[C@@H](COC(N)=O)c2ccc(-c3cccnc3C3(C#N)CC3)cc2)cs1` [Compound A63, (R)-2-(4-(2-(1-Cyanocyclopropyl)pyridin-3-yl)phenyl)-2-(3-(2-ethynylthiazol-4-yl)ureido)ethyl carbamate] the EC50 was ≤ 200 nM.
